{
  "source": "patent US20250034170A1",
  "about": "“SMALL MOLECULE MODULATORS OF GLUCOCEREBROSIDASE ACTIVITY AND USES THEREOF” (Vanqua Bio, Inc., priority 2021, published 2025)",
  "data": [
    {"molecular_target": "T1, GCase (Homo sapiens, UniProt P04062)", "T1 construct": "endogenous in cells; host or cells: HeLa cells", "T1 sequence (P04062 40-536)": "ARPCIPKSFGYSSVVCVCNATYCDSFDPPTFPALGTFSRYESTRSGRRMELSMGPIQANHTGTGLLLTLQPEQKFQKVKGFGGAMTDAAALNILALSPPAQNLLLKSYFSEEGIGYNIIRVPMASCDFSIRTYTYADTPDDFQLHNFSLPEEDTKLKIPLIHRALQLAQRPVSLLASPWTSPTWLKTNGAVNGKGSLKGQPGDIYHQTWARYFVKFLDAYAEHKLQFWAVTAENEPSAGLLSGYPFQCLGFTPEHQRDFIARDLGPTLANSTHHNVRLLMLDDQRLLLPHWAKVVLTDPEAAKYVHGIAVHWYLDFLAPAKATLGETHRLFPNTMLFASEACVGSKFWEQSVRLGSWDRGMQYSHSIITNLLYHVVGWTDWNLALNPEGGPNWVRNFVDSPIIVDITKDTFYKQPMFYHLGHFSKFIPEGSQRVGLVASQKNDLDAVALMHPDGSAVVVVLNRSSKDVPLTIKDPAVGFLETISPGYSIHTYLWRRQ", "assay": "activation of GCase in a live cell PFB assay in HELA cells", "assay_type": "cell-based", "settings": "EC50 given as range classes", "method": "(§1) Exemplary compounds were evaluated for activation of GCase in a live cell PFB assay in HELA cells (essentially as described in Ysselstein et al., “LRRK2 kinase activity regulates lysosomal glucocerebrosidase in neurons derived from Parkinson's disease patients” Nature Communications (2019) 10:5570). […] EC50 ranges: A: <10 μM; B: >10-50 μM; C: >50-100 μM; D: >100 μM.", "units": {"EC50": "µM"}, "values": [
      {"smiles": "Cc1nc(N2CCC3(CCN(c4ccc5cnn(CC(F)F)c5n4)CC3)C2)cc(C(F)(F)F)n1", "note": "[Cmpd 625]", "EC50": "< 10"},
      {"smiles": "FC(F)Cn1ncc2ncc(N3CCC4(CN(c5ccnc(C(F)(F)F)c5)C4)C3)nc21", "note": "[Cmpd 223]", "EC50": "< 10"},
      {"smiles": "O=C1CC2(CCN(c3ncc4cnn(CC(F)F)c4n3)CC2)CN1c1ccc(C(F)(F)F)nc1", "note": "[Cmpd 828]", "EC50": "10 to 50"},
      {"smiles": "Cc1ncc(N2CC3(CCN(c4cnc5cnn(CC(F)(F)F)c5n4)C3)C2)c(C(F)(F)F)n1", "note": "[Cmpd 594]", "EC50": "> 100"},
      {"smiles": "FC(F)Cn1ncc2ncc(N3CCC4(CCN(c5cc(C(F)(F)F)ccn5)CC4)CC3)nc21", "note": "[Cmpd 811]", "EC50": "< 10"},
      {"smiles": "Cc1nn(CC(F)F)c2nc(N3CCC4(CN(c5ccnc(C(F)(F)F)c5)C4)C3)cnc12", "note": "[Cmpd 985]", "EC50": "> 100"},
      {"smiles": "O=C1N(c2cnc(C(F)(F)F)nc2)C(=O)C2(CCN(c3cnc4cnn(CC(F)F)c4n3)CC2)N1Cc1cc(F)cc(F)c1", "note": "[Cmpd 819]", "EC50": "< 10"},
      {"smiles": "FC(F)Cn1ncc2ncc(N3CCC4(CC3)CN(c3ccc(C(F)(F)F)nc3)CCO4)nc21", "note": "[Cmpd 205]", "EC50": "< 10"},
      {"smiles": "FC(F)Cn1ncc2ncc(N3CCC4(CCCN(c5ccc(C(F)(F)F)nc5)C4)CC3)nc21", "note": "[Cmpd 214]", "EC50": "10 to 50"},
      {"smiles": "FC(F)Cn1ncc2ncc(N3CCC4(CN(c5cccc(OCC(F)(F)F)n5)C4)C3)nc21", "note": "[Cmpd 409]", "EC50": "10 to 50"},
      {"smiles": "FC(F)Cn1ncc2ncc(N3CCOC4(CCN(c5ccc(C(F)(F)F)nc5)CC4)C3)nc21", "note": "[Cmpd 209]", "EC50": "< 10"},
      {"smiles": "FC(F)Cn1ncc2ncc(N3CC4(CCN(c5ccc(C(F)(F)F)nc5)C4)C3)nc21", "note": "[Compound 183, 2-[1-(2,2-difluoroethyl)-1H-pyrazolo[3,4-b]pyrazin-6-yl]-6-[6-(trifluoromethyl)pyridin-3-yl]-2,6-diazaspiro[3.4]octane]", "EC50": "50 to 100"},
      {"smiles": "Cc1nc(N2CC3(CCN(c4ccc5cnn(CC(F)F)c5n4)CC3)CC2=O)cc(C(F)(F)F)n1", "note": "[Cmpd 627]", "EC50": "< 10"}
    ]},
    {"molecular_target": "T1, GCase", "assay": "activation of GCase in a live cell PFB assay in HELA cells", "assay_type": "cell-based", "settings": "activation of GCase, EC50 ranges", "method": "as §1", "units": {"EC50": "µM"}, "values": [
      {"smiles": "O=C1N(c2ncc(C(F)(F)F)cc2F)CCC12CCN(c1cnc3cnn(CC(F)F)c3n1)CC2", "note": "[Cmpd 777]", "EC50": "> 100"},
      {"smiles": "CCc1csc(CN2CC3(CCN(c4cnc5cnn(CC(F)F)c5n4)CC3)CC2=O)n1", "note": "[Cmpd 367]", "EC50": "10 to 50"},
      {"smiles": "Cc1nc2cnn(CC(F)F)c2nc1N1CCC2(CN(c3cnc(C(F)(F)F)nc3)C2)C1", "note": "[Cmpd 1036]", "EC50": "> 100"},
      {"smiles": "O=C1CC2(CCN(c3cncc(-c4nncs4)n3)CC2)CN1c1cncc(C(F)(F)F)c1", "note": "[Cmpd 237]", "EC50": "10 to 50"},
      {"smiles": "Cc1cc(N2CC3(CCN(c4cnc5cnn(C6COC6)c5n4)C3)C2)nc(C)n1", "note": "[Cmpd 646]", "EC50": "10 to 50"},
      {"smiles": "Cc1nc(N2CCC3(C2)CN(c2ncc4c(C)nn(C5COC5)c4n2)C3)cc(C(F)(F)F)n1", "note": "[Cmpd 558]", "EC50": "< 10"},
      {"smiles": "O=C1CC2(CCN(c3cnc4cnn(CC(F)F)c4n3)C2)CN1c1ccc(C(F)(F)F)nc1", "note": "(centres unmarked) [Cmpd 498]", "EC50": "10 to 50"},
      {"smiles": "Fc1ncc(C(F)(F)F)nc1N1CCC2(CCN(c3cnc4cnn(CC(F)F)c4n3)CC2)C1", "note": "[Cmpd 766]", "EC50": "< 10"},
      {"smiles": "CCN1C(=O)N(c2ccnc(C(F)(F)F)c2)C(=O)C12CCN(c1cnc3cnn(CC(F)F)c3n1)CC2", "note": "[Cmpd 850]", "EC50": "< 10"},
      {"smiles": "O=C1CC2(CCN(c3ncc4cnn(CC(F)F)c4n3)CC2)CN1c1ccnc(C(F)(F)F)n1", "note": "[Cmpd 901]", "EC50": "< 10"},
      {"smiles": "FC(F)Cn1ncc2ncc(NC3CCC4(CC3)CN(c3cccc(C(F)(F)F)n3)C4)nc21", "note": "[Compound 130, N-[1-(2,2-difluoroethyl)-1H-pyrazolo[3,4-b]pyrazin-6-yl]-2-[6-(trifluoromethyl)pyridin-2-yl]-2-azaspiro[3.5]nonan-7-amine]", "EC50": "10 to 50"},
      {"smiles": "Cc1nc(N2CC3(CCN(c4cnc5c(C)nn(CC(F)F)c5n4)C3)C2)cc(C(F)(F)F)n1", "note": "[Cmpd 503]", "EC50": "< 10"},
      {"smiles": "CCc1nn(CC(F)F)c2nc(N3CCC4(CN(c5cc(C(F)(F)F)nc(C)n5)C4)C3)ncc12", "note": "[Cmpd 1066]", "EC50": "10 to 50"},
      {"smiles": "FC(F)c1ccc(N2CCCC3(C2)CN(c2cncc(-c4nncs4)n2)C3)cn1", "note": "[Compound 160, 6-[6-(difluoromethyl)pyridin-3-yl]-2-[6-(1,3,4-thiadiazol-2-yl)pyrazin-2-yl]-2,6-diazaspiro[3.5]nonane]", "EC50": "10 to 50"},
      {"smiles": "O=C1N(c2cc(C(F)(F)F)ccn2)CCC12CCN(c1cnc3cnn(CC(F)(F)F)c3n1)CC2", "note": "[Compound 142, 8-[1-(2,2,2-trifluoroethyl)-1H-pyrazolo[3,4-b]pyrazin-6-yl]-2-[4-(trifluoromethyl)pyridin-2-yl]-2,8-diazaspiro[4.5]decan-1-one]", "EC50": "< 10"},
      {"smiles": "Cc1nn(CC(F)F)c2nc(N3CCC4(CCN(c5ccc(C(F)(F)F)nc5)C4)CC3)cnc12", "note": "[Cmpd 257]", "EC50": "< 10"},
      {"smiles": "CCn1c(N2CCC3(CCN(c4cc(C(F)(F)F)nc(C)n4)C3)CC2)nc2c(cnn2C2COC2)c1=O", "note": "[Cmpd 1110]", "EC50": "50 to 100"},
      {"smiles": "Cc1nc(N2CCC3(CCN(c4nc5c(cnn5CC(F)F)c(=O)n4CC4CC4)CC3)C2)cc(C(F)(F)F)n1", "note": "[Cmpd 1108]", "EC50": "< 10"},
      {"smiles": "Cc1cc(N2CC3(CCN(c4ncc5c(C)nn(CC(F)F)c5n4)C3)C2)nc(C(F)(F)F)n1", "note": "[Cmpd 468]", "EC50": "< 10"},
      {"smiles": "Cc1ncc(-c2nncs2)nc1N1CCC2(CN(c3ccnc(C(F)(F)F)c3)C2)C1", "note": "[Cmpd 1037]", "EC50": "< 10"},
      {"smiles": "O=C1CC2(CCN(c3ncc4cnn(CC(F)F)c4n3)CC2)CN1c1ccc(OCC(F)(F)F)nc1", "note": "[Cmpd 921]", "EC50": "10 to 50"},
      {"smiles": "Cc1cc(N2CC3(CCN(c4ncc5c(C)nn(C6COC6)c5n4)C3)C2)nc(C(F)(F)F)n1", "note": "[Cmpd 471]", "EC50": "< 10"},
      {"smiles": "Cc1nc(C(F)(F)F)ncc1N1CCC2(CCN(c3nc4c(cnn4CC(F)F)c(=O)n3C)CC2)C1", "note": "[Cmpd 1086]", "EC50": "10 to 50"},
      {"smiles": "O=C1CC2(CCN(c3cnc4cnn(CC(F)F)c4n3)CC2)CN1Cc1cnc(C(F)(F)F)cn1", "note": "[Cmpd 930]", "EC50": "10 to 50"},
      {"smiles": "Cc1nc(N2CC3(CCN(c4cncc(-c5ccn(CC(F)(F)F)n5)n4)C3)C2)cc(C(F)(F)F)n1", "note": "[Cmpd 1120]", "EC50": "> 100"},
      {"smiles": "FC(F)Cn1ncc2ncc(N3CCC4(CC3)CC(Oc3ncccc3C(F)(F)F)C4)nc21", "note": "[Cmpd 708]", "EC50": "10 to 50"},
      {"smiles": "O=C1C[C@]2(CC3CCC2CN3c2cnc3cnn(CC(F)F)c3n2)CN1c1ccc(C(F)(F)F)cn1", "note": "(some centres unmarked) [Cmpd 864]", "EC50": "10 to 50"},
      {"smiles": "FC(F)Cn1ncc2ncc(N3CCC4(CCN(c5ccnc(C(F)(F)F)c5)CC4)C3)nc21", "note": "[Compound 155, 2-[1-(2,2-difluoroethyl)-1H-pyrazolo[3,4-b]pyrazin-6-yl]-8-[2-(trifluoromethyl)pyridin-4-yl]-2,8-diazaspiro[4.5]decane]", "EC50": "< 10"},
      {"smiles": "Cc1cnc(C(F)(F)F)nc1N1CC2(CCN(c3cnc4cnn(CC(F)F)c4n3)CC2)CC1=O", "note": "[Cmpd 956]", "EC50": "> 100"},
      {"smiles": "Cc1ncc(N2CCC3(CCN(c4ncc5c(C)nn(CC(F)(F)F)c5n4)C3)C2)c(C(F)(F)F)n1", "note": "(centres unmarked) [Cmpd 659]", "EC50": "10 to 50"},
      {"smiles": "FC(F)Cn1ncc2ncc(N3CCCC4(CN(c5ccccc5)C4)C3)nc21", "note": "[Compound 19, 6-[1-(2,2-difluoroethyl)-1H-pyrazolo[3,4-b]pyrazin-6-yl]-2-phenyl-2,6-diazaspiro[3.5]nonane]", "EC50": "10 to 50"},
      {"smiles": "FC(F)Cn1ncc2ncc(N3CCC4(CCC(Oc5cncc(C(F)(F)F)c5)C4)CC3)nc21", "note": "(centres unmarked) [Cmpd 691]", "EC50": "10 to 50"},
      {"smiles": "FC(F)(F)Cn1ncc2ncc(N3CCC4(CN(c5ccnc(C(F)(F)F)c5)C4)C3)nc21", "note": "[Cmpd 924]", "EC50": "< 10"},
      {"smiles": "FC(F)(F)c1ccnc(N2CCC3(CC2)CCN(c2cncc(-c4nncs4)n2)C3)c1", "note": "[Compound 141, 2-[6-(1,3,4-thiadiazol-2-yl)pyrazin-2-yl]-8-[4-(trifluoromethyl)pyridin-2-yl]-2,8-diazaspiro[4.5]decane]", "EC50": "10 to 50"}
    ]}
  ]
}
